In the supplement of paper PMC4862054:
Several values for one entry are separate records, joined by “and”; a condition that tells them apart may be missing. Equal values may be shown once.

Experiments:
SK-BR-3 [1] = conditions: 72 h
Summary of the method: (§1)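 Each 384-well plate was pre-loaded with compound dissolved in 5 µl medium, received breast cancer cells in 20 µl suspension, and was incubated 72 h. A 2.5 µl addition of CellTiter-Blue for 2 h at 37 °C was followed by a fluorescence read at 560/590 nm. Data were normalised per plate to vehicle and a positive kill control and checked by Z'-factor. EC50 was fitted from the percent-inhibition dose-response curve, censored at the highest concentration, excluding rows with a drug sensitivity score of zero.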

MDA-MB-231 = conditions: 72 h
Summary of the method: as §1

MDA-MB-436 = conditions: 72 h
Summary of the method: as §1

HCC1937 = conditions: 72 h
Summary of the method: as §1

HCC1143 = conditions: 72 h
Summary of the method: as §1

HCC1599 = conditions: 72 h
Summary of the method: as §1

Hs578T = conditions: 72 h
Summary of the method: as §1

BT-549 = conditions: 72 h
Summary of the method: as §1

MDA-MB-468 = conditions: 72 h
Summary of the method: as §1

CAL-120 = conditions: 72 h
Summary of the method: as §1

MFM-223 = conditions: 72 h
Summary of the method: as §1

SK-BR-3 [2] = experiment: normalised viability (% of control), CellTiter-Blue; higher = more viable cells (about 100 = DMSO control); conditions: incubation time: 72 h
Summary of the method: (§2)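 Compound dissolved in 5 µl medium was pre-loaded into 384-well plates, and breast cancer cell lines in 20 µl suspension were seeded on top and incubated 72 h. After adding 2.5 µl CellTiter-Blue reagent for 2 h at 37 °C, fluorescence was read at 560/590 nm. Plates were normalised to vehicle (100) and a positive kill control (0), with Z'-factor quality control. Each value is normalised viability at a single listed concentration from the series.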

HDQ-P1 = experiment: as above; conditions: incubation time: 72 h
Summary of the method: as §2

CAL-148 = conditions: 72 h
Summary of the method: as §1

CAL-51 = conditions: 72 h
Summary of the method: as §1

CAL-85-1 = conditions: 72 h
Summary of the method: as §1

DU-4475 = conditions: 72 h
Summary of the method: as §1

MDA-MB-453 = conditions: 72 h
Summary of the method: as §1

| SMILES | EC50, CellTiter-Blue viability (SK-BR-3 [1]) | EC50, CellTiter-Blue viability (MDA-MB-231) | EC50, CellTiter-Blue viability (MDA-MB-436) | EC50, CellTiter-Blue viability (HCC1937) | EC50, CellTiter-Blue viability (HCC1143) | EC50, CellTiter-Blue viability (HCC1599) | EC50, CellTiter-Blue viability (Hs578T) | EC50, CellTiter-Blue viability (BT-549) | EC50, CellTiter-Blue viability (MDA-MB-468) | EC50, CellTiter-Blue viability (CAL-120) | EC50, CellTiter-Blue viability (MFM-223) | normalised viability (SK-BR-3 [2]; 10 nM) | normalised viability (HDQ-P1; 1 nM) | EC50, CellTiter-Blue viability (CAL-148) | EC50, CellTiter-Blue viability (CAL-51) | EC50, CellTiter-Blue viability (CAL-85-1) | EC50, CellTiter-Blue viability (DU-4475) | EC50, CellTiter-Blue viability (MDA-MB-453) | normalised viability (SK-BR-3 [2]; 100 nM) | normalised viability (HDQ-P1; 10 nM) |
| --- | --- | --- | --- | --- | --- | --- | --- | --- | --- | --- | --- | --- | --- | --- | --- | --- | --- | --- | --- | --- |
| Nc1ccn([C@@H]2O[C@H](CO)[C@@H](O)C2(F)F)c(=O)n1 [Gemcitabine] | 0.0118 µM | 0.00441 µM | 0.0222 µM | 0.0205 µM | 0.00903 µM | 0.233 µM | 0.00936 µM | 0.0191 µM | 0.0135 µM | 0.00903 µM | 0.673 µM | 77.4% | 125% | 0.0187 µM | 0.022 µM | 0.0874 µM | 0.0916 µM | 0.103 µM | – | – |
| C=CCn1c(=O)c2cnc(Nc3ccc(N4CCN(C)CC4)cc3)nc2n1-c1cccc(C(C)(C)O)n1 [MK1775] | 0.12 µM | 0.303 µM | 0.35 µM | 0.19 µM | 0.829 µM | 0.632 µM | 0.349 µM | 0.569 µM | 0.797 µM | 0.301 µM | 0.182 µM | – | – | 0.242 µM | 0.382 µM | 0.507 µM | 0.477 µM | 0.31 µM | 62.1% | 114% |
| CC(=O)[C@]1(O)Cc2c(O)c3c(c(O)c2[C@@H](O[C@H]2C[C@H](N)[C@H](O)[C@H](C)O2)C1)C(=O)c1ccccc1C3=O [Idarubicin] | 0.0245 µM | 0.0796 µM | 0.0968 µM | 0.00547 µM | 0.0915 µM | 0.945 µM | 0.0938 µM | 0.0915 µM | 0.053 µM | 0.0422 µM | 0.263 µM | 67% | 113% | 0.0187 µM | 0.00778 µM | 0.24 µM | 0.0234 µM | 0.396 µM | – | – |
| CO[C@@H]1[C@H](N(C)C(=O)c2ccccc2)C[C@H]2O[C@]1(C)n1c3ccccc3c3c4c(c5c6ccccc6n2c5c31)C(=O)NC4 [Midostaurin] | 1.24 µM | 0.477 µM | 0.204 µM | 0.237 µM | 0.822 µM | 0.617 µM | 0.299 µM | 1.49 µM | 0.49 µM | 0.591 µM | 0.708 µM | – | – | – | 0.182 µM | 0.314 µM | 0.451 µM | 0.0924 µM | 102% | 85.3% |
| CC(O)(CS(=O)(=O)c1ccc(F)cc1)C(=O)Nc1ccc(C#N)c(C(F)(F)F)c1 (configuration not stated) [Bicalutamide] | – | – | – | – | – | – | – | – | > 10 µM | – | – | – | – | – | – | – | – | – | 94.1% | 121% |
| COc1ccc(S(=O)(=O)Nc2cccnc2Nc2ccc(O)cc2)cc1 [ABT-751] | 0.156 µM | 0.376 µM | 0.776 µM | 0.349 µM | 1.78 µM | 1.59 µM | 0.218 µM | 2.47 µM | 0.748 µM | 0.295 µM | 2.13 µM | – | – | 0.949 µM | 0.772 µM | 0.29 µM | 1.25 µM | 0.114 µM | 71.6% | 106% |
| CC(C)C[C@H](NC(=O)[C@@H](COC(C)(C)C)NC(=O)[C@H](Cc1ccc(O)cc1)NC(=O)[C@H](CO)NC(=O)[C@H](Cc1c[nH]c2ccccc12)NC(=O)[C@H](Cc1cnc[nH]1)NC(=O)[C@@H]1CCC(=O)N1)C(=O)N[C@@H](CCCNC(=N)N)C(=O)N1CCC[C@H]1C(=O)NNC(N)=O [Goserelin] | – | – | – | – | – | – | – | – | – | – | – | – | – | – | – | – | – | – | 110% | 117% |
| O=C(CCCCCCC(=O)Nc1ccccc1)NO [Vorinostat] | 0.617 µM | 3.11 µM | – | 2.48 µM | 2.59 µM | 3.27 µM | 3.08 µM | 2.86 µM | 1.48 µM | 1.72 µM | 2.05 µM | – | – | 3.25 µM | – | 3.89 µM | 9 µM | 0.96 µM | 59.4% and 81.4% | 113% and 89.2% |
| Cn1cc(C2=C(c3cn(C4CCN(Cc5ccccn5)CC4)c4ccccc34)C(=O)NC2=O)c2ccccc21 [Enzastaurin] | 0.667 µM | – | 0.129 µM | 5.37 µM | 0.418 µM | – | 0.873 µM | 0.857 µM | – | – | 0.642 µM | – | – | 0.024 µM | – | – | – | 0.408 µM | 69.8% | 123% |
| CC(C)(C)NC(=O)[C@H]1CC[C@H]2[C@@H]3CC[C@H]4NC(=O)C=C[C@]4(C)[C@H]3CC[C@]12C [Finasteride] | – | – | – | – | – | – | – | – | – | – | 8.26 µM | – | – | 8.19 µM | 8.16 µM | – | 5.42 µM | 7.43 µM | 104% | 106% |
| Cc1cn(-c2cc(NC(=O)c3ccc(C)c(Nc4nccc(-c5cccnc5)n4)c3)cc(C(F)(F)F)c2)cn1 [Nilotinib] | – | – | – | 0.117 µM | – | – | – | 2.59 µM | – | – | – | – | – | – | – | – | – | – | 73.4% and 86.6% | 101% and 85.7% |
